SMILES strings stand for the structures.

Data set [1] concerns the target T1, human progesterone receptor A (PR-A) (Homo sapiens, UniProt P06401).
T1 construct: expressed in transfected cells; host or cells: SK-N-MC human neuroblastoma cells, stably transfected with pRChPR-A-neo and pMMTV-LUC
T1 sequence (P06401 1-769 isoform P06401-2): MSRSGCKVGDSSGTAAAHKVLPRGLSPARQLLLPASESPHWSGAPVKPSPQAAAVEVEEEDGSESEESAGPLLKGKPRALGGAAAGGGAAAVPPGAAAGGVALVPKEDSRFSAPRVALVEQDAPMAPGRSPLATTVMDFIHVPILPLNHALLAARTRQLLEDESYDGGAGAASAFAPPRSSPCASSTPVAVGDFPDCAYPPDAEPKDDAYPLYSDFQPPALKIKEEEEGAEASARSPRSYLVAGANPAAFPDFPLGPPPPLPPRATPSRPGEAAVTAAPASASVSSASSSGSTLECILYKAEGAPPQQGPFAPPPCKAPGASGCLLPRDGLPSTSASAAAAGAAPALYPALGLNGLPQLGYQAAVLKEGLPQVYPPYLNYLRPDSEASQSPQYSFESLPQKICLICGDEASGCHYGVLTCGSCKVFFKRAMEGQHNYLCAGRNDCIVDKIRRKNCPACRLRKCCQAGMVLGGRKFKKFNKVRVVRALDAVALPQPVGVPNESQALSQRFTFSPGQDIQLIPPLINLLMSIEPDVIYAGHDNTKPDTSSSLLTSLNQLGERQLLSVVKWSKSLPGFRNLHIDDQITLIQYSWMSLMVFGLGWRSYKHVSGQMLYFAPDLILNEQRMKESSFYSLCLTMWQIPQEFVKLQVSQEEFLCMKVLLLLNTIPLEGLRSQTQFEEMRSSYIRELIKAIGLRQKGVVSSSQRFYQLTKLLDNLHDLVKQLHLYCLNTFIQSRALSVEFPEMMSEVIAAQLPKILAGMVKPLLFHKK
In words: Progesterone receptor-antagonistic action in stable transfectants of SK-N-MC cells with human PR-A and MTV-LUC reporter. It counts as cell-based. To be noted: SK-N-MC cells, 24 hours; for Emax: antagonistic efficacy against 0.1 nmol/l promegestone, read-out: Progesterone receptor A (PR-A) Efficacy. As for the experimental part:
(§1) Progesterone Receptor-Antagonistic Action in Stable Transfectants of Human Neuroblastoma Cells (SK-N-MC Cells) with the Human Progesterone A or Progesterone B Receptor and an MTV-LUC Reporter Construct
(§2) SK-N-MC cells (human neuroblastoma cells), which have been stably transfected with plasmids, which express the human progesterone receptor B (pRChPR-B-neo) or the human progesterone receptor A (pRChPR-A-neo) and a reporter construct (pMMTV-LUC), were incubated for 24 hours either in the absence (negative control) or in the presence of increasing amounts of the respective test compound (0.01 nmol/l, 0.1 nmol/l, 1 nmol/l, 10 nmol/l, 100 nmol/l and 1 μmol/l), in order to determine the agonistic efficacy. As positive control of reporter gene induction, the cells were treated with the synthetic gestagen promegestone (0.01 nmol/l, 0.1 nmol/l, 1 nmol/l, 10 nmol/l, 100 nmol/l and 1 μmol/l). For determination of the antagonistic activity, the cells were treated with 0.1 nmol/l promegestone and additionally with increasing amounts of the respective test compound (0.01 nmol/l, 0.1 nmol/l, 1 nmol/l, 10 nmol/l, 100 nmol/l and 1 μmol/l). The activity of the LUC reporter gene (LUC=luciferase) was determined in the cell lysates and was measured as RLU (relative light units). All measured values are given as percentage efficacy and as EC50 or IC50 concentrations.
(§3) 11β-(4-Acetylphenyl)-20,20,21,21,21-pentafluoro-17-hydroxy-19-nor-17α-pregna-4,9-dien-3-one and 20,20,21,21,21-pentafluoro-17-hydroxy-11β-[4-(hydroxyacetyl)phenyl]-19-nor-17α-pregna-4,9-dien-3-one, very potent and therefore preferred examples from WO98/34947 and WO2008/058767, were tested as comparative compounds along with the test compound.

In data set [2] the target is T2, human progesterone receptor B (PR-B) (Homo sapiens, UniProt P06401).
T2 construct: expressed in transfected cells; host or cells: SK-N-MC human neuroblastoma cells, stably transfected with pRChPR-B-neo and pMMTV-LUC
T2 sequence (P06401 1-933): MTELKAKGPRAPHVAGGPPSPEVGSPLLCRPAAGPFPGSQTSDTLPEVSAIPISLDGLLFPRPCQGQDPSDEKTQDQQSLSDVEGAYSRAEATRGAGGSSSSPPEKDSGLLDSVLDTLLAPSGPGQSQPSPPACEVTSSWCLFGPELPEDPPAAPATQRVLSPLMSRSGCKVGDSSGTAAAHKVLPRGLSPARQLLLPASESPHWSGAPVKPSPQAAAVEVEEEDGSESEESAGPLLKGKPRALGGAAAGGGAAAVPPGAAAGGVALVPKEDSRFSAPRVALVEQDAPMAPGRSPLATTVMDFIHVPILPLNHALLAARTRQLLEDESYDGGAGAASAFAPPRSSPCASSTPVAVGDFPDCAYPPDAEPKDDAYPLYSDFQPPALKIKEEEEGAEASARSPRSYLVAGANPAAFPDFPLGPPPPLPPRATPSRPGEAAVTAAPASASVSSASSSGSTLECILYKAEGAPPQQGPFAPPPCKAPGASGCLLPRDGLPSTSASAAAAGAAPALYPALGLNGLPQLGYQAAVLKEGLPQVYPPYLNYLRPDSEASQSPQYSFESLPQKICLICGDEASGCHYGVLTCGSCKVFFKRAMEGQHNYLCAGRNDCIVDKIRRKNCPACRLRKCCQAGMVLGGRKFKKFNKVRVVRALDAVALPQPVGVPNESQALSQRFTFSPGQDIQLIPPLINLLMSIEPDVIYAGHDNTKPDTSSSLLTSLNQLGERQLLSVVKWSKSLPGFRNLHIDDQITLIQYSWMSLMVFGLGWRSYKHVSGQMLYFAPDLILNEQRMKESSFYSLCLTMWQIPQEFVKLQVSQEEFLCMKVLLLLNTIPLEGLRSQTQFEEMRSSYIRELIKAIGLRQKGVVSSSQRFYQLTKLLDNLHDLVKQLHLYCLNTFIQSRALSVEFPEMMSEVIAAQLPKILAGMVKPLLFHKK
The experiment in a line: Progesterone receptor-antagonistic action in stable transfectants of SK-N-MC cells with human PR-B and MTV-LUC reporter. The data set is classed as cell-based. To be noted: SK-N-MC cells, 24 hours; for Emax: antagonistic efficacy against 0.1 nmol/l promegestone, read-out: Progesterone receptor B (PR-B) Efficacy. How it is done:
as §1, §2, §3

Data set [3] in a line: Metabolic stability in human liver microsomes (HLM). The data set is classed as in vitro ADME. To be noted: HLM 0.5 mg/ml protein, 1 μM, 37° C., pH 7.4; well-stirred model, phase I reactions. As for the experimental part:
Metabolic Stability of (11β,17β)-17-hydroxy-11-[4-(methylsulphonyl)phenyl]-17-(pentafluoroethyl)estra-4,9-dien-3-one and (11β,17β)-17-hydroxy-11-[4′-(methylsulphonyl)-biphenyl-4-4-yl]-17-(pentafluoroethyl)estra-4,9-dien-3-one in Human Liver Microsomes (HLM)
Isolated human liver microsomes (HLM) were used for assessing the metabolic stability of compounds of general formula I.
Incubations were carried out with 2.4 ml of HLM solution (0.5 mg/ml protein content), 30 μl of the test compound (final concentration 1 μM) and 0.6 ml of the cofactor mixture (=NADPH-generating system of 3 IU glucose-6-phosphate dehydrogenase, 14.6 mg glucose-6-phosphate, 1.2 mg NADP) at 37° C. in 100 mM phosphate buffer at pH 7.4. Samples are taken at 6 time points (2-60 min), precipitated with an equal volume of methanol and the recovery of the test substances used in the supernatant is determined by LC-MS/MS analysis. The intrinsic clearance of the substance in the liver microsome preparation can be calculated from the half-life found for the breakdown of the substance. Based on this, together with various physiological characteristics according to the well-stirred model, it is then possible to predict a (metabolic) in vivo clearance with respect to phase I reactions. […]
In general terms: Liver microsomes are a subcellular fraction often used to study metabolism.

`C[C@]12C[C@H](c3ccc(-c4ccc(S(C)(=O)=O)cc4)cc3)C3=C4CCC(=O)C=C4CC[C@H]3[C@@H]1CC[C@@]2(O)C(F)(F)C(F)(F)F` [Example 10, (11β,17β)-17-hydroxy-11-[4′-(methylsulphonyl)biphenyl-4-yl]-17-(pentafluoroethyl)estra-4,9-dien-3-one]: the Emax in data set [1] and in data set [2] was 100% throughout. Moreover, in data set [3], the “(metabolic) in vivo clearance in humans predicted” value was < 0.17 mL/min/kg.
On to `C[C@]12C[C@H](c3ccc(-c4ccc(S)cc4)cc3)C3=C4CCC(=O)C=C4CC[C@H]3[C@@H]1CC[C@@]2(O)C(F)(F)C(F)(F)F` [Example 13, (11β,17β)-17-hydroxy-17-(pentafluoroethyl)-11-(4′-sulphanylbiphenyl-4-yl)estra-4,9-dien-3-one], for which the IC50 – broadly, the concentration at which inhibition is half-maximal – was 0.072 nM in data set [1] (antagonistic activity against 0.1 nmol/l promegestone, LUC reporter, read-out: Progesterone receptor A (PR-A) Potency IC50) and 0.072 nM in data set [2] (antagonistic activity against 0.1 nmol/l promegestone, LUC reporter, read-out: Progesterone receptor B (PR-B) Potency IC50). The Emax in data set [1] and in data set [2] was 100% throughout.
Turning to `CN(C)S(=O)(=O)c1ccc(-c2ccc([C@H]3C[C@@]4(C)[C@@H](CC[C@@]4(O)C(F)(F)C(F)(F)F)[C@@H]4CCC5=CC(=O)CCC5=C43)cc2)cc1` [Example 14, 4′-[(11β,17β)-17-hydroxy-3-oxo-17-(pentafluoroethyl)estra-4,9-dien-11-yl]-N,N-dimethylbiphenyl-4-sulphonamide], the Emax in data set [1] and in data set [2] was 100% throughout.
With `CN(C)S(=O)(=O)c1ccc([C@H]2C[C@@]3(C)[C@@H](CC[C@@]3(O)C(F)(F)C(F)(F)F)[C@@H]3CCC4=CC(=O)CCC4=C32)cc1` [Example 15, 4-[(11β,17β)-17-Hydroxy-3-oxo-17-(pentafluoroethyl)estra-4,9-dien-11-yl]-N,N-dimethylbenzene sulphonamide], the Emax in data set [1] and in data set [2] was 100% each time.

The record behind these values is US8278469B2, “17-hydroxy-17-pentafluoroethyl-estra-4,9(10)-dien-11-aryl derivatives, method of production thereof and use thereof for the treatment of diseases” (Bayer Pharma Aktiengesellschaft, priority 2009, dated 2012).
